Our source for the IC50 and EC50 values is ChEMBL document CHEMBL4184282, “Structure-based design and synthesis of macrocyclic human rhinovirus 3C protease inhibitors” (Bioorg Med Chem Lett, 2018).

One test addresses Genome polyprotein (rhinovirus B14, UniProt P03303). As to the kind of experiment: Inhibition of Human rhinovirus serotype 14 3C protease preincubated for 1 hr followed by Cys(PT14M)-Ala-Ile-Phe-Gln'Gly-Pro-Asp-Phe(4-NH2)-OH substrate addition measured after 1 hr by fluorescence lifetime readout assay.
Another test has as its system rhinovirus B14. In words: Antiviral activity against Human rhinovirus serotype 14 infected in human HeLa cells assessed as reduction in virus-induced cytopathic effect by measuring reduction in host cell viability preincubated with cells for 6 hrs followed by viral infection measured up to 72 hrs by CellTiter-Glo luminescence assay. In kind it is functional, organism-based. The settings on record: Rhinovirus B. A general note: Protection from cytopathic effect is a common read-out in antiviral testing.

The structures appear in SMILES notation. Square brackets hold non-standard residues; d marks the D form. Peptide text beside a SMILES is read from it. * marks the point of attachment. ξ: configuration not given here. Cbz = O=C(OCc1ccccc1)*; ξDap = NCC(N)C(=O)O

Sequence of Genome polyprotein (P03303 1538-1719 limits assumed): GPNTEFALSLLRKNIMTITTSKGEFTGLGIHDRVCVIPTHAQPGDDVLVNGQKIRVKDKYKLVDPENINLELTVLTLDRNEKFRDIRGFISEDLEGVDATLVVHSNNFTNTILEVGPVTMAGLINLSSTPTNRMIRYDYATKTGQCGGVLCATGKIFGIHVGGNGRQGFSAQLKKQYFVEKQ

A word on the IC50: it is the midpoint of a concentration-inhibition curve. A low value points to greater potency in that assay. For orientation: EC50 means the concentration at which the effect is half-maximal. With `Cc1cc(C(=O)N[C@H]2CCCCN(C)C(=O)CC[C@@H](C=O)NC(=O)[C@@H]3C[C@@H](c4ccccc4)CN3C2=O)no1`, the IC50 at Genome polyprotein came to 7.37 µM. Also, the EC50 with rhinovirus B14 was 28.6 µM.

On Genome polyprotein, `Cc1cc(C(=O)N[C@H]2CCCNC(=O)[C@H]3CCN(C3)C(=O)CC[C@@H](C=O)NC(=O)[C@H](Cc3ccc(F)cc3)NC2=O)no1` came in with an IC50 of 0.002 µM. The EC50 in the test with rhinovirus B14 was > 50 µM.

Compound `Cc1cc(C(=O)N[C@H]2CCCCN(C)C(=O)CC[C@@H](C(=O)C(=O)N3CCC3)NC(=O)[C@H](Cc3ccc(F)cc3)NC2=O)no1` registered an IC50 on Genome polyprotein of 0.035 µM. Also, in the test on rhinovirus B14, the EC50 came out at 6.1 µM.

Consider `Cc1cc(C(=O)N[C@H]2CCCCNC(=O)CC[C@@H](C=O)NC(=O)[C@H](Cc3ccc(F)cc3)NC2=O)no1`, for which the IC50 against Genome polyprotein worked out at 3.2 µM. For the same compound, the EC50 in the test on rhinovirus B14 was > 50 µM.

At Genome polyprotein, `CCOC(=O)/C=C/[C@@H]1CCC(=O)N(C)CCCC[C@H](NC(=O)c2cc(C)on2)C(=O)N[C@@H](Cc2ccc(F)cc2)C(=O)N1` gave an IC50 of 3.84 µM. Also, in the test on rhinovirus B14, the EC50 is > 50 µM.

Take `Cc1cc(C(=O)N[C@@H]2C(=O)N[C@@H](Cc3ccc(F)cc3)C(=O)N[C@H](C=O)CCC(=O)NCc3cccc2c3)no1`: 0.753 µM corresponded to half-maximal inhibition against Genome polyprotein (IC50). In the test on rhinovirus B14, the EC50 was 21.9 µM.

`Cc1cc(C(=O)N[C@H]2CNC(=O)[C@H]3CCCN3C(=O)CC[C@@H](C=O)NC(=O)[C@H](Cc3ccc(F)cc3)NC2=O)no1` displayed an IC50 at Genome polyprotein of 0.006 µM. For the same compound, in the test on rhinovirus B14, the EC50 was found to be 33.5 µM.

Consider `Cc1cc(C(=O)N[C@H]2CCCCN(C)C(=O)CC[C@@H](C=O)NC(=O)[C@H](Cc3ccc(F)cc3)NC2=O)no1`, for which the IC50 on Genome polyprotein came to 0.063 µM. In addition, in the test with rhinovirus B14, the EC50 is 3.4 µM.

On Genome polyprotein, `Cc1cc(C(=O)N[C@H]2CNC(=O)C[C@H]3CCCN3C(=O)CC[C@@H](C=O)NC(=O)[C@H](Cc3ccc(F)cc3)NC2=O)no1` came in with an IC50 of 0.002 µM. For the same compound, the EC50 in the test with rhinovirus B14 turned out to be 29.1 µM.

As for `Cc1cc(C(=O)N[C@@H]2C(=O)N[C@@H](Cc3ccc(F)cc3)C(=O)N[C@H](C=O)CCC(=O)N(C)Cc3cccc2c3)no1`, the IC50 at Genome polyprotein came out at 0.008 µM. The EC50 in the test on rhinovirus B14 came to 0.568 µM.

For the compound `Cc1cc(C(=O)N[C@H]2C/C=C/CCCO[C@H]3CCN(C3)C(=O)CC[C@@H](C=O)NC(=O)[C@H](Cc3ccc(F)cc3)NC2=O)no1`, inhibition against Genome polyprotein was half-maximal at 0.002 µM (IC50). Moreover, in the test on rhinovirus B14, the EC50 was determined as 2.05 µM.

As to `Cc1cc(C(=O)N[C@H]2CNC(=O)CN(C)C(=O)CC[C@@H](C=O)NC(=O)[C@H](Cc3ccc(F)cc3)NC2=O)no1`, half-maximal inhibition against Genome polyprotein (IC50) required 0.018 µM. For the same compound, the EC50 in the test on rhinovirus B14 was > 50 µM.

On to `Cc1cc(C(=O)N[C@H]2C/C=C/CO[C@H]3CCN(C3)C(=O)CC[C@@H](C=O)NC(=O)[C@H](Cc3ccc(F)cc3)NC2=O)no1`, for which the IC50 against Genome polyprotein came out at 0.003 µM. Besides, the EC50 with rhinovirus B14 was determined as 5.74 µM.

`CC(=O)NCC(C=O)NC(=O)[C@H](Cc1ccccc1)NC(=O)[C@H](CC(C)C)NC(=O)OCc1ccccc1` (stereo partly drawn) (Cbz-Leu-Phe-[ξDap](Ac)-aldehyde) had an IC50 at Genome polyprotein of 0.007 µM. Besides, the EC50 in the test with rhinovirus B14 was 1.76 µM.
